# Data from patent US20140066449A1, “DIPYRIDINIUM DERIVATIVES” (SABREPHARM LIMITED, priority 2011, published 2014).
# Several values for one entry are separate records, joined by “and”; a condition that tells them apart may be missing. Equal values may be shown once. Read-outs that look alike come from different tables or passages of the source.
# What was measured:
# [1] = tested on: human mitochondria isolated from HEK293 cells; assay: ROS production in isolated mitochondria (DCFDA); type: biochemical
# Experimental: The ability of test compounds to impact ROS production in isolated mitochondria after 120 mins exposure was assessed.
# Mitochondria were isolated from harvested human embryonic kidney (HEK293) cells (20×10^6) using a commercial kit (Thermo Scientific) before re-suspension in PBS to a final volume of 800 μL. […] Independent experiments (each assessing the impact of all four compounds along with a positive [AAPH; 5.0 mM] and vehicle control) were repeated three times.
# [2] = tested on: MCF-7 Human Breastadenocarclnoma Xenograft; assay: MCF-7 xenograft model study; type: in vivo, mice
# Description: Evaluation of the Efficacy of the Compounds C & D (Examples 2 & 3 Respectively) in the MCF-7 Human Breastadenocarclnoma Xenograft Model
# A2780 [ovarian] = assay: Combination with cisplatin, A2780; type: cell-based
# [3] = tested on: H460 non-small cell lung adenocarcinoma; assay: MTT in vitro cytotoxicity, H460; type: cell-based
# Experimental: (§1) All were stored in the dark at 4° C. An accurately weighed amount of each compound was dissolved in DMSO and Hank's Balanced Salt Solution (Sigma) according to Table 2 below:
# (§2) Further dilutions were made in complete RPMI1640 cell culture medium (RPMI1640 cell culture medium supplemented with 10% foetal bovine serum, 1 mM L-glutamine, and 2 mM sodium pyruvate (all from Sigma)).
# (§3) H460 non-small cell lung adenocarcinoma, HT-29 colon adenocarcinoma and MCF-7 breast adenocarcinoma (ECACC, Salisbury, Wiltshire) were used for analysis. Cells were cultured in complete RPMI1640 cell culture medium, and maintained as monolayer cultures at 37° C. in a humidified 5% CO2 environment.
# (§4) Tumour cell growth inhibition was assessed using the MTT assay with a standard 96 hour plus an extended 10 day incubation. For the 96 hour assay 1×10^4 cells were inoculated into each well of a 96-well plate and incubated overnight at 37° C. in a humidified atmosphere containing 5% CO2 to give time to adhere to the wells and form a monolayer. For the 10 day incubation, 1×102 (H460 and HT-29) and 1×103 (MCF-7) cells were inoculated. The next day, culture medium was removed from each well and replaced with cell culture media for the untreated control, or media containing compound, and the plates then incubated for a further 96 hours or 10 days. […] After 96 hours or 10 days culture medium was removed and 200 μL of 0.5 mgmL-1 MTT solution (Sigma) in complete medium added to each well. Following a further 4 hours incubation, the solution was removed from each well and 150 μL of DMSO added to solubilise the formazan crystals resulting from MTT conversion. Absorbance values for the resulting solutions were read at 550 nm on a Multiskan Ex microplate reader (Thermo Fisher, Loughborough, UK) and cell survival calculated as the absorbance of treated cells divided by the control. Results are expressed in terms of IC50 values (i.e. concentration of compound required to kill 50% of cells), which were determined manually in Microsoft Excel from plots of concentration versus percentage cell survival, and all experiments were performed in triplicate.
# [4] = tested on: HT-29 colon adenocarcinoma; assay: MTT in vitro cytotoxicity, HT-29; type: cell-based
# Experimental: as §1, §2, §3, §4
# M 14 [melanoma] = assay: Combination with cisplatin, M14; type: cell-based
# [5] = tested on: MCF-7 breast adenocarcinoma; assay: MTT in vitro cytotoxicity, MCF-7; type: cell-based, human
# Experimental: as §1, §2, §3, §4
# MCF7 [Breast] = assay: Combination with cisplatin, MCF-7; type: cell-based, human
# [6] = tested on: A2780/cis [cisplatin ovarian resistant line]; assay: Combination with cisplatin, A2780/cis; type: cell-based
# [7] = Redox potential study, square wave voltammetry; type: physicochemical; details: 0.1 mol dm-3 LiNTf2, 20° C., first scan
# Experimental: BioAnalytical Systems CV50W potentiostat (from BAS Inc., USA)
# Square wave voltammetry (4 mV step, 25 mV pulse, 10 Hz SW frequency)
# 3 mm diameter glassy carbon working electrode (from BAS)
# 3 mm diameter glassy carbon counter electrode (from BAS)
# Saturated calomel reference electrode (SCE, from Sycopel Scientific Ltd., UK)
# 0.1 mol dm-3 lithium bis(trifluoromethanesulphonyl)imide ((LiNTf2)CAS 90076-65-6, from 3M)
# Voltammograms were recorded from 0.5 V to −1.2 V in deoxygenated solutions of the Compounds.
# [8] = cisplatin 1 μM alone (compound 0 μM)
# [9] = cisplatin 3 μM alone (compound 0 μM)
# [10] = cisplatin 10 μM alone (compound 0 μM)
# [11] = compound 1 μM + cisplatin 10 μM
# [12] = compound 3 μM + cisplatin 10 μM
# [13] = compound 10 μM + cisplatin 1 μM
# [14] = compound 10 μM + cisplatin 3 μM
# [15] = compound 10 μM + cisplatin 10 μM
compound,measurement,setting,value
"3-(((2-(2-methoxyethoxy)(ethoxy)n)ethyl) hexane-1,6-diyldicarbamate)methyl)-6,7-dihydrodipyrido[1,2-a:2′,1′-c]pyrazine-5,8-diium bistrifluoromethanesulfonate [G]",rank order of efficacy (ROS production),"[1]; isolated HEK293 mitochondria, 100 μM, 120 mins",F>G>B>A
same,ROS production relative to vehicle treatment,"[1]; isolated HEK293 mitochondria, 100 μM, 120 mins, room temperature",robustly increased ROS production
N.N.[Cl][Pt][Cl] [Cisplatin],Growth delay,"[2]; 10 mg/kg, i.p., d 0",5.1 days
same,Maximum % weight loss,"[2]; 10 mg/kg, i.p., d 0",8.0%
same,weight loss of tumour bearing mice,"[2]; xenograft studies, FIG. 6",significant weight loss
same,% cell survival,A2780 [ovarian]; [8],49.5% and 52.5%
same,% cell survival,A2780 [ovarian]; [9],19.6% and 19.2%
same,% cell survival,A2780 [ovarian]; [10],4.8% and 5.8%
same,IC50,"[3]; H460, 10 day exposure, highest concentration 30 μM, read-out: IC50 Run 1",1100 nM
same,IC50,"[3]; H460, 10 day exposure, highest concentration 100 μM, read-out: IC50 Run 2",1000 nM
same,IC50,"[3]; H460, 10 day exposure, highest concentration 100 μM, read-out: IC50 Run 3",900 nM
same,IC50,"[3]; H460, 10 day exposure, mean of runs, read-out: IC50 Mean",1000 nM
same,IC50,"[4]; HT-29, 10 day exposure, highest concentration 30 μM, read-out: IC50 Run 1",2400 nM
same,IC50,"[4]; HT-29, 10 day exposure, highest concentration 100 μM, read-out: IC50 Run 2",1300 nM
same,IC50,"[4]; HT-29, 10 day exposure, highest concentration 100 μM, read-out: IC50 Run 3",700 nM
same,IC50,"[4]; HT-29, 10 day exposure, mean of runs, read-out: IC50 Mean",1500 nM
same,% cell survival,M 14 [melanoma]; [8],85.6% and 97.7%
same,% cell survival,M 14 [melanoma]; [9],77.1% and 84.8%
same,% cell survival,M 14 [melanoma]; [10],58.3% and 63.3%
same,IC50,"[5]; MCF-7, 10 day exposure, highest concentration 30 μM, read-out: IC50 Run 1",2300 nM
same,IC50,"[5]; MCF-7, 10 day exposure, highest concentration 100 μM, read-out: IC50 Run 2",2300 nM
same,IC50,"[5]; MCF-7, 10 day exposure, highest concentration 100 μM, read-out: IC50 Run 3",2500 nM
same,IC50,"[5]; MCF-7, 10 day exposure, mean of runs, read-out: IC50 Mean",2400 nM
same,% cell survival,MCF7 [Breast]; cisplatin 0.1 μM alone (compound 0 μM),107.4% and 110.8%
same,% cell survival,MCF7 [Breast]; cisplatin 0.3 μM alone (compound 0 μM),76% and 91.3%
same,% cell survival,MCF7 [Breast]; [8],72.4% and 70.3%
same,% cell survival,[6]; [10],36.3% and 39.7%
same,% cell survival,[6]; cisplatin 30 μM alone (compound 0 μM),8.7% and 8.6%
same,% cell survival,[6]; cisplatin 100 μM alone (compound 0 μM),−0.5% and 1.1%
"O=S(=O)([O-])C(F)(F)F.O=S(=O)([O-])C(F)(F)F.c1cc[n+]2c(c1)-c1cccc[n+]1CC2 [Compound A, 6,7-dihydrodipyrido[1,2-a:2′,1′-c]pyrazine-5,8-diium bistrifluoromethanesulfonate]",Reduction potential 1,[7],−0.444 V vs. SCE
same,Reduction potential 2,[7],−0.944 V vs. SCE
same,% cell survival,A2780 [ovarian]; compound 1 μM + cisplatin 1 μM,58%
same,% cell survival,A2780 [ovarian]; compound 1 μM + cisplatin 3 μM,24.5%
same,% cell survival,A2780 [ovarian]; [11],5.2%
same,% cell survival,"A2780 [ovarian]; compound 1 μM, cisplatin 0 μM",90.5%
same,% cell survival,A2780 [ovarian]; compound 3 μM + cisplatin 1 μM,54.4%
same,% cell survival,A2780 [ovarian]; compound 3 μM + cisplatin 3 μM,22.3%
same,% cell survival,A2780 [ovarian]; [12],5.3%
same,% cell survival,"A2780 [ovarian]; compound 3 μM, cisplatin 0 μM",86.3%
same,% cell survival,A2780 [ovarian]; [13],40.6%
same,% cell survival,A2780 [ovarian]; [14],19%
same,% cell survival,A2780 [ovarian]; [15],5.2%
same,% cell survival,"A2780 [ovarian]; compound 10 μM, cisplatin 0 μM",66%
same,IC50,"[3]; Homo sapiens, NCI-H460, 240 h, read-out: IC50 Mean",5400 nM
same,IC50,"[3]; Homo sapiens, NCI-H460, 240 h, read-out: IC50 Run 1",5200 nM
same,IC50,"[3]; Homo sapiens, NCI-H460, 240 h, read-out: IC50 Run 2",5500 nM
same,IC50,"[3]; Homo sapiens, NCI-H460, 240 h, read-out: IC50 Run 3",5400 nM
same,ROS production relative to vehicle treatment,[1],barely above vehicle levels
same,rank order of efficacy (ROS production),[1],F>G>B>A
same,IC50,"[4]; Homo sapiens, HT-29, 240 h, read-out: IC50 Mean",1500 nM
same,IC50,"[4]; Homo sapiens, HT-29, 240 h, read-out: IC50 Run 1",1800 nM
same,IC50,"[4]; Homo sapiens, HT-29, 240 h, read-out: IC50 Run 2",900 nM
same,IC50,"[4]; Homo sapiens, HT-29, 240 h, read-out: IC50 Run 3",1700 nM
same,% cell survival,M 14 [melanoma]; compound 1 μM + cisplatin 1 μM,83.1%
same,% cell survival,M 14 [melanoma]; compound 1 μM + cisplatin 3 μM,71.3%
same,% cell survival,M 14 [melanoma]; [11],57.9%
same,% cell survival,"M 14 [melanoma]; compound 1 μM, cisplatin 0 μM",87%
same,% cell survival,M 14 [melanoma]; compound 3 μM + cisplatin 1 μM,75.8%
same,% cell survival,M 14 [melanoma]; compound 3 μM + cisplatin 3 μM,68%
same,% cell survival,M 14 [melanoma]; [12],55.4%
same,% cell survival,"M 14 [melanoma]; compound 3 μM, cisplatin 0 μM",80%
same,% cell survival,M 14 [melanoma]; [13],49%
same,% cell survival,M 14 [melanoma]; [14],44.4%
same,% cell survival,M 14 [melanoma]; [15],36.4%
same,% cell survival,"M 14 [melanoma]; compound 10 μM, cisplatin 0 μM",56.5%
same,IC50,"[5]; Homo sapiens, MCF7, 240 h, read-out: IC50 Mean",5000 nM
same,IC50,"[5]; Homo sapiens, MCF7, 240 h, read-out: IC50 Run 1",2700 nM
same,IC50,"[5]; Homo sapiens, MCF7, 240 h, read-out: IC50 Run 2",5400 nM
same,IC50,"[5]; Homo sapiens, MCF7, 240 h, read-out: IC50 Run 3",6800 nM
same,% cell survival,MCF7 [Breast]; compound 1 μM + cisplatin 0.1 μM,96.4%
same,% cell survival,MCF7 [Breast]; compound 1 μM + cisplatin 0.3 μM,69.4%
same,% cell survival,MCF7 [Breast]; compound 1 μM + cisplatin 1 μM,62%
same,% cell survival,"MCF7 [Breast]; compound 1 μM, cisplatin 0 μM",109%
same,% cell survival,MCF7 [Breast]; compound 3 μM + cisplatin 0.1 μM,80.9%
same,% cell survival,MCF7 [Breast]; compound 3 μM + cisplatin 0.3 μM,64.8%
same,% cell survival,MCF7 [Breast]; compound 3 μM + cisplatin 1 μM,66.2%
same,% cell survival,"MCF7 [Breast]; compound 3 μM, cisplatin 0 μM",95.1%
same,% cell survival,MCF7 [Breast]; compound 10 μM + cisplatin 0.1 μM,52.8%
same,% cell survival,MCF7 [Breast]; compound 10 μM + cisplatin 0.3 μM,39.6%
same,% cell survival,MCF7 [Breast]; [13],32.6%
same,% cell survival,"MCF7 [Breast]; compound 10 μM, cisplatin 0 μM",52.6%
same,% cell survival,[6]; [11],51.4%
same,% cell survival,[6]; compound 1 μM + cisplatin 30 μM,10%
same,% cell survival,[6]; compound 1 μM + cisplatin 100 μM,−1.6%
same,% cell survival,"[6]; compound 1 μM, cisplatin 0 μM",77.8%
same,% cell survival,[6]; [12],31.9%
same,% cell survival,[6]; compound 3 μM + cisplatin 30 μM,10.2%
same,% cell survival,[6]; compound 3 μM + cisplatin 100 μM,1.9%
same,% cell survival,"[6]; compound 3 μM, cisplatin 0 μM",48.7%
same,% cell survival,[6]; [15],16.6%
same,% cell survival,[6]; compound 10 μM + cisplatin 30 μM,6%
same,% cell survival,[6]; compound 10 μM + cisplatin 100 μM,1.8%
same,% cell survival,"[6]; compound 10 μM, cisplatin 0 μM",29.4%
